Test [1] concerns NaV1.4. Briefly: I-V protocol, whole-cell patch-clamp, NaV1.4. The test is classed as cell-based, human. Particulars: Eo1a 10 μM. On the procedure: (§1) Human Embryonic Kidney (HEK) 293 cells stably expressing human NaV1.1 to NaV1.7/β1 (SB Drug Discovery, Glasgow, United Kingdom), Chinese Hamster Ovary (CHO) cells stably expressing human NaV1.8/β3 in a tetracycline-inducible system (ChanTest, Cleveland, OH, United States), and HEK293 cells stably expressing rat transient receptor potential vanilloid 1 (TRPV1) were cultured as previously described ([Yin et al., 2020]). Human KV2.1 and NaV1.7 mutants were transiently transfected into HEK293 cells stably expressing β1/β2 using Lipofectamine 2000 (Thermo Fisher Scientific, Scoresby, VIC, Australia) and used for patch-clamp experiments 48 h after transfection. Cells were grown in an incubator at 37°C with 5% CO2 and passaged every 3–4 d (at 70–80% confluency) using TrypLE Express (Thermo Fisher Scientific).
(§2) Automated whole-cell patch-clamp recordings were performed with a QPatch-16 automated electrophysiology platform (Sophion Bioscience, Ballerup, Denmark) using single-hole (QPlate 16 with a standard resistance of 2 ± 0.4 MΩ) or multi-hole (QPlate 16X with a standard resistance 0.2 ± 0.04 MΩ, NaV1.8 only) as previously described ([McMahon et al., 2020]).
The extracellular solution (ECS) consisted of (in mM) 145 NaCl (replaced with 70 choline chloride for NaV1.4, NaV1.5 and NaV1.7), 4 KCl, 2 CaCl2, 1 MgCl2, 10 HEPES, and 10 glucose, pH to 7.4 with NaOH (adjusted to 305 mOsm/L with sucrose). For NaV recordings the intracellular solution (ICS) consisted of (in mM) 140 CsF, 1 EGTA, 5 CsOH, 10 HEPES, and 10 NaCl, pH to 7.3 with CsOH (adjusted to 320 mOsm/L with sucrose). For KV2.1 recordings the ICS consisted of (in mM) 50 KCl, 60 KF, 10 EGTA, 10 HEPES, 10 NaCl pH to 7.3 with KOH (adjusted to 320 mOsm/L with sucrose). TTX (1 μM) was added to the ECS for NaV1.8 recordings to inhibit background endogenous TTX sensitive current in CHO cells.
I-V curves were obtained with a holding potential of −90 mV followed by a series of 500 ms step pulses that ranged from −110 to +80 mV in 5-mV increments (repetition interval 5 s) before and after 5 min incubation with Eo1a (10 μM). Conductance-voltage (G-V) curves were obtained by calculating the conductance (G) at each voltage (V) using equation G = I/(V − V rev ), where V rev is the reversal potential. G-V curves were fitted with a Boltzmann equation. […]
(§3) The time constant of fast inactivation (τ) was computed by fitting the current decay traces with a single exponential function using QPatch Assay Software 5.6 (Sophion). The time to peak was calculated from pulse onset to peak inward current using QPatch Assay Software 5.6 (Sophion).
A general note: The patch-clamp technique gives a direct electrical read-out from membranes.

In test [2] the test system is NaV1.7 with DII S3-S4 loop of NaV1.8. In words: Voltage-dependence of activation, NaV1.7/NaV1.8 chimera DII S3-S4. The class given is cell-based, human. The settings on record: Eo1a 10 μM; NaV1.7 with NaV1.8 DII S3-S4; HEK293 β1/β2, transient; mean ± SEM, n = 3–6 cells. On the procedure:
as §1
Wild-type (WT) hNaV1.7 cDNA (NM_002,977, a gift from Dr James Cox, University College London) was subjected to in vitro site-directed mutagenesis using the QuikChange™ XL mutagenesis kit (Agilent Technologies) following the manufacturer’s instructions. NaV1.7 mutants were generated by substituting the domain II (DII) S1-S2 loop, the DII S3-S4 loop, the domain IV (DIV) S1-S2 loop and the DIV S3-S4 loop in NaV1.7 with the corresponding regions of NaV1.8. The mutations were verified by sequencing at the Brisbane node of the Australian Genome Research Facility. […]

Test [3] addresses NaV1.8 (Homo sapiens, UniProt Q9Y5Y9). Briefly: Concentration-response of NaV1.8 peak current, QPatch whole-cell patch-clamp. The test is classed as cell-based. The settings on record: CHO cells, hNaV1.8/β3, holding −90 mV, 50 ms pulse to +10 mV every 20 s, 5 min incubation, ECS with 0.1% BSA, 1 μM TTX, pH 7.4, four-parameter Hill fit, mean ± SEM, n = 7 cells, read-out: EC50 for increase in NaV1.8 peak current. On the procedure:
as §1
Automated whole-cell patch-clamp recordings were performed with a QPatch-16 automated electrophysiology platform (Sophion Bioscience, Ballerup, Denmark) using single-hole (QPlate 16 with a standard resistance of 2 ± 0.4 MΩ) or multi-hole (QPlate 16X with a standard resistance 0.2 ± 0.04 MΩ, NaV1.8 only) as previously described ([McMahon et al., 2020]). […]

Test [4] has as its system mice. In words: Spontaneous pain behaviours after intraplantar injection in mice. The test is classed as in vivo, mouse. The settings on record: 40 μl intraplantar, n = 3–4. From the text: Adult male C57BL/6J mice aged 4–8 weeks were sourced from the Animal Resource Centre (Canning Vale, Western Australia). Adult male NaV1.8 knockouts ([Nassar et al., 2004]) (aged 8–11 weeks) and wild-type littermates were housed and tested at University College London. Animals were housed in groups of three or four per cage under 12-h light-dark cycles and were provided with standard rodent chow and water ad libitum. Ethical approval for experiments involving animals was obtained from The University of Queensland animal ethics committee (TRI/IMB/093/17, IMB/PACE/421/18) and the United Kingdom Home Office (project licence PPL 70/7382). All experiments were conducted in accordance with the International Association for the Study of Pain Guidelines for the Use of Animals in Research and the Australian Code of Practice for the Care and Use of Animals for Scientific Purposes, 8th edition (2013).
Eo1a (1 μM or 10 μM) was diluted in saline/0.1% BSA and administered by intraplantar injection to the left hind paw of mice in a volume of 40 μl under isoflurane (3%) anaesthesia, and spontaneous pain behaviours (licks, bites, shakes, and lifts of the hind paw) were counted by a blinded investigator for up to 40 min after the injection.

Test [5] deals with NaV1.2. In words: I-V protocol, whole-cell patch-clamp, NaV1.2. The test is classed as cell-based, human. The settings on record: Eo1a 10 μM. On the procedure: as §1, §2
The extracellular solution (ECS) consisted of (in mM) 145 NaCl (replaced with 70 choline chloride for NaV1.4, NaV1.5 and NaV1.7), 4 KCl, 2 CaCl2, 1 MgCl2, 10 HEPES, and 10 glucose, pH to 7.4 with NaOH (adjusted to 305 mOsm/L with sucrose). For NaV recordings the intracellular solution (ICS) consisted of (in mM) 140 CsF, 1 EGTA, 5 CsOH, 10 HEPES, and 10 NaCl, pH to 7.3 with CsOH (adjusted to 320 mOsm/L with sucrose). For KV2.1 recordings the ICS consisted of (in mM) 50 KCl, 60 KF, 10 EGTA, 10 HEPES, 10 NaCl pH to 7.3 with KOH (adjusted to 320 mOsm/L with sucrose). […]
as §3

Where a SMILES comes first, the peptide text is derived from it. Bridges are numbered along the chain shown (N, C = ends).

The record followed here is PMC8795738, “The Tarantula Venom Peptide Eo1a Binds to the Domain II S3-S4 Extracellular Loop of Voltage-Gated Sodium Channel NaV1.8 to Enhance Activation” (Frontiers in Pharmacology, 2022).

In general, EC50 refers to the concentration that produces a half-maximal response.

Sequence of NaV1.8 (Q9Y5Y9 whole entry): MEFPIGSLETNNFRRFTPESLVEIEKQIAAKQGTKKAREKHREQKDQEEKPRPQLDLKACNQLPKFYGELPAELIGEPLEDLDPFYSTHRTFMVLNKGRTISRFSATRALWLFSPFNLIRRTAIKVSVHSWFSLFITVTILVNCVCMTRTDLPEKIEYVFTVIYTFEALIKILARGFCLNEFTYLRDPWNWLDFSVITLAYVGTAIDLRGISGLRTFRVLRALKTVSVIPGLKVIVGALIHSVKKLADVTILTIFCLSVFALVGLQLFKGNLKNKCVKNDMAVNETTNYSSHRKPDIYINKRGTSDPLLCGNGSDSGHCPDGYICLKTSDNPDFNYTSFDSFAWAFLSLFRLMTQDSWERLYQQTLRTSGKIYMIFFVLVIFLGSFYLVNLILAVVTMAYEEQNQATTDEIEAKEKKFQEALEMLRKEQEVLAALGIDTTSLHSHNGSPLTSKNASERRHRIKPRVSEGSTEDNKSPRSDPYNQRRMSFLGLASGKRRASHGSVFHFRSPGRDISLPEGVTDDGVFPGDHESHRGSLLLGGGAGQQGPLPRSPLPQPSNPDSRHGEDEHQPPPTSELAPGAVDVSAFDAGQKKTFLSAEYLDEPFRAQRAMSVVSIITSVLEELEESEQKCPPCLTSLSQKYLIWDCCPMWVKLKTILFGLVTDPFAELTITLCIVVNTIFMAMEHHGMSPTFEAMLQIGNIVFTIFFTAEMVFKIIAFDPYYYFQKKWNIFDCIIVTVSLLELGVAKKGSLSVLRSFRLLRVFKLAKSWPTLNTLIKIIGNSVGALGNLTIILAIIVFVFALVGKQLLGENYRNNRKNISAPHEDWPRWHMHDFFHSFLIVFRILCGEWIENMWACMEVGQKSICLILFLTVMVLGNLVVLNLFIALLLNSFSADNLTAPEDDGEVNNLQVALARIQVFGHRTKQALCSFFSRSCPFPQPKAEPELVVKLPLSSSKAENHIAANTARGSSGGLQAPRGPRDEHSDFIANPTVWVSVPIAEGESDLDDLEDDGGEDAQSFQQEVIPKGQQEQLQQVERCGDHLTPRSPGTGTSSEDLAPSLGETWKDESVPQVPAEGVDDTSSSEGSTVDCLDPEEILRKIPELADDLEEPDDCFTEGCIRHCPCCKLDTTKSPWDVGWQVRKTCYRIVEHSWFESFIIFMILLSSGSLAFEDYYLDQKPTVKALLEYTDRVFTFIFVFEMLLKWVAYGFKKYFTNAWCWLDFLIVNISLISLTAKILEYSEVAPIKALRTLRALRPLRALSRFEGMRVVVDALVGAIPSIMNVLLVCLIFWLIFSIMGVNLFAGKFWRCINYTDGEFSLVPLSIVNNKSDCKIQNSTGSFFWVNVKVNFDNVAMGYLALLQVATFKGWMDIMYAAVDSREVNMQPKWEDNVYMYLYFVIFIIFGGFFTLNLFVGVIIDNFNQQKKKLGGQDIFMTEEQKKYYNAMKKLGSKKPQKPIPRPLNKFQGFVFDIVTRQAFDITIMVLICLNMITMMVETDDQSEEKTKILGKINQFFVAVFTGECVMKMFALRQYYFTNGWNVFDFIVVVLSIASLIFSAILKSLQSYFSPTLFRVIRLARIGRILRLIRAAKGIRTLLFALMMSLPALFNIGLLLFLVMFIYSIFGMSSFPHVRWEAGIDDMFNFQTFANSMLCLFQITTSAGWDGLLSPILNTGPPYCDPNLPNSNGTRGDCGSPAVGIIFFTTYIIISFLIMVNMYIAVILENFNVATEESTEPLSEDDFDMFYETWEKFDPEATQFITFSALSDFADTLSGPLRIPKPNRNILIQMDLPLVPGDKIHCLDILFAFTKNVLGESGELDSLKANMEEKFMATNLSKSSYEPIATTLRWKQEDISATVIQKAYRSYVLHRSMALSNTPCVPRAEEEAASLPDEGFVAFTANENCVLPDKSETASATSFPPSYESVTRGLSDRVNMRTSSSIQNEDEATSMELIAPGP

`CC[C@H](C)[C@@H]1NC(=O)[C@H](CCCNC(=N)N)NC(=O)[C@@H]2CSSC[C@@H]3NC(=O)CNC(=O)CNC(=O)[C@H](CC(C)C)NC(=O)[C@H](Cc4ccccc4)NC(=O)[C@H](Cc4c[nH]c5ccccc45)NC(=O)[C@H](CCCNC(=N)N)NC(=O)[C@@H](NC(=O)[C@@H](N)CC(=O)O)CSSC[C@H](NC(=O)[C@H](CSSC[C@@H](C(=O)N[C@@H](C)C(=O)N[C@@H](Cc4c[nH]c5ccccc45)C(=O)N[C@@H](CC(=O)O)C(=O)NCC(=O)N[C@H](C(=O)N[C@@H](Cc4ccccc4)C(N)=O)[C@@H](C)O)NC(=O)[C@H](Cc4ccc(O)cc4)NC(=O)[C@H](CCCCN)NC(=O)[C@H]([C@@H](C)CC)NC(=O)[C@H](Cc4ccc(O)cc4)NC(=O)CNC(=O)[C@H](CC(=O)O)NC1=O)NC(=O)[C@H](CC(=O)O)NC(=O)[C@H](CO)NC(=O)[C@H](CC(=O)O)NC(=O)[C@H](CCCCN)NC(=O)[C@H](CO)NC3=O)C(=O)N[C@@H](CCCCN)C(=O)N[C@@H](Cc1c[nH]cn1)C(=O)N[C@@H](CC(C)C)C(=O)N[C@@H](C)C(=O)N2` [Eo1a] (H-DCRWFLGGCSKDSDCCKHLACRIDGYIKYCAWDGTF-NH2; disulfide 2-16, 9-21, 15-30 (inferred); N-terminus assumed): the “peak current I/I0” value in test [1] (5 min, peak from I-V protocol at any voltage, normalised to buffer control, HEK293 hNaV1.4/β1, mean ± SEM, n = 4–6 cells) is reported as 0.68 ± 0.04. For the same compound, the V1/2 activation is given as −28.8 ± 1.2 mV in test [1] (NaV1.4, 5 min, control −27.6 ± 1.4 mV, mean ± SEM, n = 4–6) and −21.3 mV in test [5] (5 min, control −15.9 ± 1.2 mV, *p < 0.05, mean ± SEM, n = 4–6). Besides, the “V1/2 inactivation (steady-state fast inactivation)” value is reported as −67.6 ± 1.2 in test [1] (NaV1.4, 5 min, control −65.8 ± 1.3 mV, mean ± SEM, n = 4–6) and −52.7 ± 0.5 in test [5] (5 min, control −54.6 ± 1.6 mV, mean ± SEM, n = 4–6). For the same compound, the “effect on inactivation kinetics” value in test [1] (NaV1.4, test pulse −20 mV) was “minimal effect”; in test [5] (test pulse −20 mV) it was “minimal effect”. Moreover, the ΔV1/2 activation in test [2] is −20.4 ± 1.4 mV. In test [3], the EC50 was determined as 894 ± 146 nM. Further, the spontaneous pain behaviours result was “induced spontaneous pain behaviours” in test [4] (Eo1a 1 μM) and “caused spontaneous pain behaviours that gradually subsided over 30 min” in test [4] (Eo1a 10 μM, gradually subsided over 30 min).
